Experimental data reported in ChEMBL document CHEMBL1687844, “In Vitro antiretroviral properties of S/GSK1349572, a next-generation HIV integrase inhibitor” (Antimicrob Agents Chemother, 2011).
Blank lines part the entries; values can stand above or below the compound they belong to. The source made the active and inactive calls. The calls are words filed in the database; no cut-off is given here.

Tests used:
[1] = system: Human immunodeficiency virus 1; assay type: functional, organism-based; conditions: Human immunodeficiency virus 1, 3B, MT2
[2] = system: Human immunodeficiency virus 1; test: Antiviral activity against Human immunodeficiency virus 1 3B infected in human MT2 cells assessed as inhibition of virus induced cytopathic effect measured after 2 to 3 days by PCR; assay type: functional, organism-based
[3] = system: Human immunodeficiency virus 1; test: Antiviral activity against Human immunodeficiency virus 1 Bal infected in human PBMC assessed as incorporation of [methly-3H]dTTP to viral DNA after 7 days by reverse transcriptase activity in presence of 100% human serum; conditions: 168 h
[4] = system: Human immunodeficiency virus 1; assay type: functional, organism-based; conditions: Human immunodeficiency virus 1, 3B, MT2, 672 h
[5] = system: Human immunodeficiency virus 1; test: Antiviral activity against Human immunodeficiency virus 1 3B harboring integrase T124A mutant gene infected in human MT2 cells assessed as inhibition of virus induced cytopathic effect selected after 14 passages measured after 2 to 3 days by PCR; assay type: functional, organism-based
[6] = system: Human immunodeficiency virus 1; assay type: functional, organism-based; conditions: Human immunodeficiency virus 1, 3B, MT2; remark: listed apart in the source
[7] = system: Human immunodeficiency virus 1; assay type: functional, organism-based; conditions: Human immunodeficiency virus 1, 3B, MT2; remark: listed apart in the source
[8] = system: Human immunodeficiency virus 1; assay type: functional, organism-based; conditions: Human immunodeficiency virus 1, 3B, MT2; remark: listed apart in the source
[9] = system: Human immunodeficiency virus 1; test: Antiviral activity against Human immunodeficiency virus 1 Bal infected in human PBMC assessed as incorporation of [methly-3H]dTTP to viral DNA after 7 days by reverse transcriptase activity in presence of 100% human serum relative to control
[10] = system: Human immunodeficiency virus 1; test: Antiviral activity against Human immunodeficiency virus 1 3B harboring reverse transcriptase M184V mutant infected in human MT2 cells assessed as inhibition of virus induced cytopathic effect selected on day 14 after 4 passages by PCR analysis; assay type: functional, organism-based; conditions: MT2, 336 h
[11] = system: Human immunodeficiency virus 1; test: Antiviral activity against Human immunodeficiency virus 1 3B harboring reverse transcriptase M184V, M184I, K82N mutant infected in human MT2 cells assessed as inhibition of virus induced cytopathic effect selected on day 14 after 4 passages by PCR analysis; assay type: functional, organism-based; conditions: MT2, 336 h
[12] = system: Human immunodeficiency virus 1; test: Antiviral activity against Human immunodeficiency virus 1 3B harboring reverse transcriptase M184V, M184I mutant infected in human MT2 cells assessed as inhibition of virus induced cytopathic effect selected on day 14 after 4 passages by PCR analysis; assay type: functional, organism-based; conditions: MT2, 336 h
[13] = system: Human immunodeficiency virus 2; test: Antiviral activity against Human immunodeficiency virus 2 clinical isolate obtained from HIV infected patients; assay type: functional, organism-based
[14] = system: Human immunodeficiency virus 1; test: Antiviral activity against Human immunodeficiency virus 1 NL432 infected in human MT4 cells assessed as effect on viral DNA production after 18 hrs by quantitative PCR; assay type: functional, organism-based
[15] = Cytotoxicity against PHA-stimulated human PBMC after 2 days by Cell titer Glo luminescent assay; assay type: cell-based
[16] = Cytotoxicity against human IM9 cells after 2 days by Cell titer Glo luminescent assay; assay type: cell-based, IM-9
[17] = system: Human immunodeficiency virus 1; test: Antiviral activity against Human immunodeficiency virus 1 3B infected in human MT4 cells assessed as incorporation of [methly-3H]dTTP to viral DNA after 7 days by reverse transcriptase activity in presence of 20% human serum albumin relative to control; assay type: functional
[18] = system: Human immunodeficiency virus 1; test: Antiviral activity against Human immunodeficiency virus 1 NL432 infected in human MT4 cells assessed as inhibition of viral DNA integration after 18 hrs by quantitative PCR; assay type: functional, organism-based
[19] = Cytotoxicity against unstimulated human PBMC after 2 days by Cell titer Glo luminescent assay; assay type: cell-based
[20] = Cytotoxicity against human U937 cells after 2 days by Cell titer Glo luminescent assay; assay type: cell-based, U-937
[21] = system: Human immunodeficiency virus 1; test: Antiviral activity against Human immunodeficiency virus 1 3B infected in human MT4 cells assessed as incorporation of [methly-3H]dTTP to viral DNA after 7 days by reverse transcriptase activity in presence of […]; assay type: functional
[22] = system: Human immunodeficiency virus 1; test: Antiviral activity against NNRTI-resistant Human immunodeficiency virus 1 NL432 harboring non-nucleotide reverse transcriptase […] mutant infected in human HeLa-CD4 cells after 2 to 3 days by reverse transcriptase activity; assay type: functional, organism-based; conditions: Human immunodeficiency virus 1, NL432, CD4; pooled result: one value given for 9 cell lines, strains, targets or settings
[23] = system: Human immunodeficiency virus 1; test: Antiviral activity against pseudo Human immunodeficiency virus 1 Bal infected in human CIP4 after 2 days by luciferase reporter gene assay; assay type: functional, organism-based; conditions: CIP4, 48 h
[24] = system: Human immunodeficiency virus 1; test: Antiviral activity against Human immunodeficiency virus 1 Bal infected in human PBMC assessed as incorporation of [methly-3H]dTTP to viral DNA after 7 days by reverse transcriptase activity; assay type: functional, organism-based; conditions: 168 h
[25] = system: Human immunodeficiency virus 1; test: Ratio of EC90 for protein-activated Human immunodeficiency virus 1 Bal infected in human PBMC to EC50 Human immunodeficiency virus 1 Bal infected in human PBMC; assay type: functional
[26] = system: Human immunodeficiency virus 1; test: Antiviral activity against pseudo Human immunodeficiency virus 1 Bal infected in human CIP4 after 2 days by luciferase reporter gene assay in presence of 40 mg/ml HAS relative to control; assay type: functional
[27] = Cytotoxicity against human MT4 cells after 2 days by Cell titer Glo luminescent assay; assay type: cell-based
[28] = system: Human immunodeficiency virus 1; test: Antiviral activity against Human immunodeficiency virus 1 3B infected in human MT4 cells assessed as viral viability after 4 to 5 days by Cell titer Glo luminescent assay; assay type: functional, organism-based
[29] = system: Human immunodeficiency virus 1; test: Antiviral activity against pseudo Human immunodeficiency virus 1 Bal infected in human CIP4 after 2 days by luciferase reporter gene assay in presence of 2 mg/ml AAG relative to control; assay type: functional
[30] = Cytotoxicity against human MOLT4 cells after 2 days by Cell titer Glo luminescent assay; assay type: cell-based, MOLT-4
[31] = system: Human immunodeficiency virus 1; test: Antiviral activity against Human immunodeficiency virus 1 NL432 infected in human MT4 cells assessed as increase in 2-LTR circular DNA after 18 hrs by quantitative PCR; assay type: functional, organism-based
[32] = system: Human immunodeficiency virus 1; test: Antiviral activity against PI-resistant Human immunodeficiency virus 1 NL432 harboring […] L24I/M46I/L63P/A71V/G73S/V82Tmutant infected in human MT4 cells after 2 to 3 days by reverse transcriptase activity; assay type: functional, organism-based; conditions: Human immunodeficiency virus 1, NL432, MT4

Compound: Cc1nnc(C(=O)NC(C)(C)c2nc(C(=O)NCc3ccc(F)cc3)c(O)c(=O)n2C)o1 [RALTEGRAVIR POTASSIUM]
EC50 [1]: 1.3 nM | EC50 [2]: 0.26 nM | EC50 [3]: 5.6 nM | EC90 [3]: 23 nM | EC50 [4]: 0.26 nM | EC50 [5]: 0.26 nM | EC50 [6]: 6.4 nM | EC50 [7]: 6.4 nM | EC50 [8]: 32 nM

EC50 [3]: 20 nM | EC90 [3]: 78 nM
Compound: COc1cc2c(cc1Cc1cccc(Cl)c1F)c(=O)c(C(=O)O)cn2[C@H](CO)C(C)C
fold change (FC) [9]: 22

Compound: Nc1ccn([C@@H]2CS[C@H](CO)O2)c(=O)n1 [LAMIVUDINE]
EC50 [2]: 800 nM | EC50 [10]: 800 nM | EC50 [11]: 800 nM | EC50 [12]: 800 nM

Compound: C[C@@H]1CCO[C@H]2Cn3cc(C(=O)NCc4ccc(F)cc4F)c(=O)c([O-])c3C(=O)N12.[Na+] [DOLUTEGRAVIR SODIUM]
EC50 [13]: 0.8 nM | Activity [14]: inactive | fold change (FC) [9]: 75 | CC50 at 48 h [15]: 52000 nM | CC50 at 48 h [16]: 4800 nM | fold change (FC) [17]: 32 | inhibition [18]: Active | CC50 at 48 h [19]: 189000 nM | EC50 [2]: 0.26 nM | EC50 [3]: 38 nM | EC90 [3]: 152 nM | CC50 at 48 h [20]: 7000 nM | fold change (FC) [21]: 75 | EC50 [22]: 1.3 nM | EC50 [23]: 2.2 nM | EC50 [24]: 0.51 nM | fold change (FC) [25]: 3 | fold change (FC) [26]: 11 | CC50 at 48 h [27]: 14000 nM | EC50 [28]: 0.71 nM | fold change (FC) [29]: 2.1 | CC50 at 48 h [30]: 15000 nM | Activity [31]: Active | EC50 [32]: 0.36 nM
